Measurements reported in US20120115845A1, “THERAPEUTIC AGENTS” (priority 2007, published 2012).

Experiments:
[1] = biological target: T1, human GHS receptor (Homo sapiens, UniProt Q92847); assay: h bind IC50 (binding assay, Table 1); conditions: human receptor; Table 1
[2] = biological target: T1, human GHS receptor; assay: Ghrelin IP1 agonist assay (IP1 HTRF); type: cell-based; set-up: expressed in transfected cells; host or cells: HEK293s; conditions: for Emax: 2 h, agonist effect as % maximal effect of GHRP-6 (5 μM), read-out: h IP1 ag %; for EC50: HEK293s cells stably expressing human GHS receptor, 2 hours at 37° C., read-out: h IP1 ag EC50
Summary of the method: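 Cells: HEK293s stably expressing human GHS receptor, in stimulation buffer containing 0.02% fatty acid free BSA.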

T1 sequence (Q92847 whole entry): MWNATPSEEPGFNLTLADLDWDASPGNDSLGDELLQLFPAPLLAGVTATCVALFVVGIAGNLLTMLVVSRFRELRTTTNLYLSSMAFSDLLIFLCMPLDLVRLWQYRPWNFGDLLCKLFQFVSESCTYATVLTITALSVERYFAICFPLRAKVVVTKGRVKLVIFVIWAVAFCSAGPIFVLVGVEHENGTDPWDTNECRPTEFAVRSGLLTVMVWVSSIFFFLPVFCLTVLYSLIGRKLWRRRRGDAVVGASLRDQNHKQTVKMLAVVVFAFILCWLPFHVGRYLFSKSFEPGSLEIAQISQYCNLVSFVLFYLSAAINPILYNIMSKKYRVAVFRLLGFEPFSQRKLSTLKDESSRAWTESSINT

Cc1ccn(-c2ccc(Cl)c(C(=O)NC(=O)Nc3nc4ccc(S(=O)(=O)CCCN5CCN(C)CC5)cc4s3)c2)n1 [Example 91, 2-Chloro-5-(3-methyl-1H-pyrazol-1-yl)-N-(6-(3-(4-methylpiperazin-1-yl)propylsulfonyl)benzothiazol-2-ylcarbamoyl)benzamide] gave an IC50 [1] of 0.5 nM, an Emax [2] of 0.5% and an EC50 [2] of 4820 nM.

Work on CN1CCN(CCCS(=O)(=O)c2ccc3nc(NC(=O)NC(=O)c4cc(OS(C)(=O)=O)ccc4Cl)sc3c2)CC1 [Example 92, 4-Chloro-3-(6-(3-(4-methylpiperazin-1-yl)propylsulfonyl)benzothiazol-2-ylcarbamoylcarbamoyl)phenyl methanesulfonate] yielded an IC50 [1] of 10.1 nM, an Emax [2] of 4.99% and an EC50 [2] of over 4870 nM.

With CCOc1ccc(Cl)c(C(=O)NC(=O)Nc2nc3ccc(S(=O)(=O)CCCN4CCN(C)CC4)cc3s2)c1 [Example 93, 2-Chloro-5-ethoxy-N-(6-(3-(4-methylpiperazin-1-yl)propylsulfonyl)benzothiazol-2-ylcarbamoyl)benzamide] the IC50 [1] was 1.7 nM, the Emax [2] was 3.9% and the EC50 [2] was 30.1 nM.

With CN1CCN(CCCS(=O)(=O)c2ccc3nc(NC(=O)NC(=O)c4cc(C5CC5)ccc4Cl)sc3c2)CC1 [Example 94, 2-Chloro-5-cyclopropyl-N-(6-(3-(4-methylpiperazin-1-yl)propylsulfonyl)benzothiazol-2-ylcarbamoyl)benzamide] the IC50 [1] was 0.3 nM, the Emax [2] was 18.1% and the EC50 [2] was 7.24 nM.

Molecule CN1CCN(CCCS(=O)(=O)c2ccc3nc(NC(=O)NC(=O)c4cc(-n5cncn5)ccc4Cl)sc3c2)CC1 [Example 95, 2-Chloro-N-(6-(3-(4-methylpiperazin-1-yl)propylsulfonyl)benzothiazol-2-ylcarbamoyl)-5-(1H-1,2,4-triazol-1-yl)benzamide] has an IC50 [1] of 10.7 nM, an Emax [2] of 9.48% and an EC50 [2] of 1160 nM.

Work on CN1CCN(CCCS(=O)(=O)c2ccc3nc(NC(=O)NC(=O)c4cc(-c5cncs5)ccc4Cl)sc3c2)CC1 [Example 96, 2-Chloro-N-(6-(3-(4-methylpiperazin-1-yl)propylsulfonyl)benzothiazol-2-ylcarbamoyl)-5-(thiazol-5-yl)benzamide] yielded an IC50 [1] of 2.9 nM, an Emax [2] of 13.1% and an EC50 [2] of 432 nM.

With CCN(CC)CCCS(=O)(=O)c1ccc2nc(NC(=O)NC(=O)c3cc(N4CCOCC4)ccc3Cl)sc2c1 [Example 97, 2-Chloro-N-(6-(3-(diethylamino)propylsulfonyl)benzothiazol-2-ylcarbamoyl)-5-morpholinobenzamide] the IC50 [1] was 4.2 nM, the Emax [2] was 8.13% and the EC50 [2] was 4.28 nM.

CCN(CC)CCCS(=O)(=O)c1ccc2nc(NC(=O)NC(=O)c3cc(-n4cccn4)ccc3Cl)sc2c1 [Example 98, 2-Chloro-N-(6-(3-(diethylamino)propylsulfonyl)benzothiazol-2-ylcarbamoyl)-5-(1H-pyrazol-1-yl)benzamide] showed an IC50 [1] of 8.7 nM, an Emax [2] of 9.19% and an EC50 [2] of 1.5 nM.

CN1CCC(S(=O)(=O)c2ccc3nc(NC(=O)NC(=O)c4cc(-n5cccn5)ccc4Cl)sc3c2)CC1 [Example 100, 2-Chloro-N-(6-(1-methylpiperidin-4-ylsulfonyl)benzothiazol-2-ylcarbamoyl)-5-(1H-pyrazol-1-yl)benzamide] showed an IC50 [1] of 27.3 nM, an Emax [2] of 0% and an EC50 [2] of at least 20000 nM.

CS(=O)(=O)c1ccc2nc(NC(=O)NC(=O)c3c(Cl)cccc3Cl)sc2c1 [Example 101, 2,6-Dichloro-N-[(6-methylsulfonylbenzothiazol-2-yl)carbamoyl]benzamide] gave an IC50 [1] of 284 nM, an Emax [2] of 7.89% and an EC50 [2] of 206 nM.

Molecule CS(=O)(=O)c1ccc2nc(NC(=O)NC(=O)c3ccccc3Cl)sc2c1 [Example 102, 2-Chloro-N-[(6-methylsulfonylbenzothiazol-2-yl)carbamoyl]benzamide] has an IC50 [1] of 116 nM, an Emax [2] of 24.2% and an EC50 [2] of 57.8 nM.

In the case of CS(=O)(=O)c1ccc2nc(NC(=O)NC(=O)c3ccccc3Br)sc2c1 [Example 103, 2-Bromo-N-[(6-methylsulfonylbenzothiazol-2-yl)carbamoyl]benzamide], the IC50 [1] is reported as 239 nM, the Emax [2] is reported as 20.5% and the EC50 [2] is reported as 454 nM.

For CS(=O)(=O)c1ccc2nc(NC(=O)NC(=O)c3ccccc3[N+](=O)[O-])sc2c1 [Example 104, N-[(6-Methylsulfonylbenzothiazol-2-yl)carbamoyl]-2-nitro-benzamide], the IC50 [1] was 742 nM, the Emax [2] was 15.1% and the EC50 [2] was 772 nM.

Work on CS(=O)(=O)c1ccc2nc(NC(=O)NC(=O)c3ccccc3-c3ccccc3)sc2c1 [Example 105, N-[(6-Methylsulfonylbenzothiazol-2-yl)carbamoyl]-2-phenyl-benzamide] yielded an IC50 [1] of 215 nM, an Emax [2] of 39.4% and an EC50 [2] of 98.6 nM.

In the case of CS(=O)(=O)c1ccc2nc(NC(=O)NC(=O)c3c(F)cccc3Cl)sc2c1 [Example 106, 2-Chloro-6-fluoro-N-[(6-methylsulfonylbenzothiazol-2-yl)carbamoyl]benzamide], the IC50 [1] is reported as 216 nM, the Emax [2] is reported as 12.9% and the EC50 [2] is reported as 32.8 nM.

Molecule CS(=O)(=O)c1ccc2nc(NC(=O)NC(=O)c3ccc(F)cc3Cl)sc2c1 [Example 107, 2-Chloro-4-fluoro-N-[(6-methylsulfonylbenzothiazol-2-yl)carbamoyl]benzamide] has an IC50 [1] of 306 nM, an Emax [2] of 19.3% and an EC50 [2] of 27.6 nM.

For CS(=O)(=O)c1ccc2nc(NC(=O)NC(=O)c3ccccc3F)sc2c1 [Example 108, 2-Fluoro-N-[(6-methylsulfonylbenzothiazol-2-yl)carbamoyl]benzamide], the IC50 [1] was 1640 nM, the Emax [2] was 8.69% and the EC50 [2] was 24300 nM.

Molecule CS(=O)(=O)c1ccc2nc(NC(=O)NC(=O)c3cccc(F)c3Cl)sc2c1 [Example 110, 2-Chloro-3-fluoro-N-[(6-methylsulfonylbenzothiazol-2-yl)carbamoyl]benzamide] has an IC50 [1] of 392 nM, an Emax [2] of 15.8% and an EC50 [2] of 91.7 nM.

COc1ccc(C(=O)NC(=O)Nc2nc3ccc(S(C)(=O)=O)cc3s2)c(Cl)c1OC [Example 111, 2-Chloro-3,4-dimethoxy-N-[(6-methylsulfonylbenzothiazol-2-yl)carbamoyl]benzamide] gave an IC50 [1] of 1270 nM, an Emax [2] of 14.1% and an EC50 [2] of 335 nM.

CS(=O)(=O)c1ccc(C(=O)NC(=O)Nc2nc3ccc(S(C)(=O)=O)cc3s2)c(Cl)c1 [Example 113, 2-Chloro-4-methylsulfonyl-N-[(6-methylsulfonylbenzothiazol-2-yl)carbamoyl]benzamide] showed an IC50 [1] of 1660 nM, an Emax [2] of 10.8% and an EC50 [2] of 1290 nM.

CS(=O)(=O)c1ccc2nc(NC(=O)NC(=O)c3ccc(N4CCOCC4)cc3Cl)sc2c1 [Example 115, 2-Chloro-N-[(6-methylsulfonylbenzothiazol-2-yl)carbamoyl]-4-morpholin-4-yl-benzamide] showed an IC50 [1] of 63.4 nM, an Emax [2] of 9.95% and an EC50 [2] of 2030 nM.

For CS(=O)(=O)c1ccc2nc(NC(=O)NC(=O)c3ccc(-n4cccn4)cc3Cl)sc2c1 [Example 116, 2-Chloro-N-[(6-methylsulfonylbenzothiazol-2-yl)carbamoyl]-4-pyrazol-1-yl-benzamide], the IC50 [1] was 36 nM, the Emax [2] was 45.1% and the EC50 [2] was 400 nM.

Molecule CS(=O)(=O)c1ccc2nc(NC(=O)NC(=O)c3ccc(N4CCCC4)cc3Cl)sc2c1 [Example 117, 2-Chloro-N-[(6-methylsulfonylbenzothiazol-2-yl)carbamoyl]-4-pyrrolidin-1-yl-benzamide] has an IC50 [1] of 37.8 nM, an Emax [2] of 16.8% and an EC50 [2] of 15.9 nM.
